Measurements: patent US8071548B2, “Method of reducing injury to mammalian cells” (Nono, Inc., priority 2002, dated 2011)

Key:
[1] = test system: transient middle cerebral artery occlusion; assay: Transient MCAO, post-treatment study (1 h after MCAO onset); type: in vivo, Sprague-Dawley rats; details: 3 nMole/g i.v. 1 h after MCAO onset
Description: Next, I examined whether pretreatment with Tat-peptides would reduce stroke damage. Experiments were carried out in adult male Sprague-Dawley rats subjected to transient middle cerebral artery occlusion (MCAO) for 90 minutes by the intraluminal suture method (36,37). Animals were fasted overnight and injected with atropine sulfate (0.5 mg/kg IP). After 10 minutes anesthesia was induced with 3.5% halothane in a mixture of nitrous oxide and oxygen (Vol. 2:1) and maintained with 0.8% halothane. Rats were orally intubated, mechanically ventilated, and paralyzed with pancuronium bromide (0.6 mg/kg IV). Body temperature was maintained at 36.5-37.5° C. with a heating lamp. Polyethylene catheters in the femoral artery and vein were used to continuously record blood pressure and to sample blood for gas and pH measurements. […] This produces an extensive infarction encompassing the cerebral cortex and basal ganglia. […] Physiological parameters (body temperature, blood pressure, blood gases) were monitored and maintained throughout the experiment (Table 1). All experimental manipulations and analyses of data were performed by individuals blinded to the treatment groups. The extent of cerebral infarction was measured 24 h after MCAO onset (FIG. 7C inset). The postural reflex test (38), and the forelimb placing test (39) were used to grade neurological function on a scale of 0 to 12 (normal=0; worst=12) during MCAO (at 50 minutes) and 24 h thereafter.
Next, I examined whether treatment with Tat-NR2B9c could attenuate ischemic neuronal damage in-vivo when given after stroke onset. […] Infarction volume and neurological outcome measurements were performed at times identical to the pre-treatment study. Body temperature, blood pressure and blood gases were monitored throughout the 24 h experiment and maintained equivalent between groups (Table 2).

traumatic brain injury = assay: Lateral fluid percussion injury model of TBI; type: in vivo, Sprague-Dawley rats; details: analyzed 24 h after injury
Description: Adult male Sprague-Dawley rats weighing approximately 350 g were ordered from Charles River and anesthesia was induced using a gaseous mixture of 1:2 oxygen:nitrous oxide with 2% halothane. The halothane level was reduced to 1% during surgical manipulations and weights were recorded prior to preparatory surgery. The preparatory surgery for these experiments included the cannulation of the left femoral vein and a 5 mm diameter craniotomy. The venous cannula is sealed and tucked inside the animal whereupon the wound is sutured. The center of the craniotomy lies about 2.5 mm to the right of the sagittal suture, between the bregma and lambda. A modified Leur-loc is attached to the perimeter of the craniotomy with superglue (FIG. 28).
Dental acrylic (GC America Inc, Alsip, Ill.) is applied around the modified Leur-loc to seal it into place. A small piece of gelfoam is placed into the opening and the skin is sutured over the entire setup. The animal is then returned to its cage. The following day, the animal is re-anesthetized, weighed, and its wound is re-opened. The gelfoam is removed and the animal is attached to the fluid percussion device via the modified Leur-loc. At this time, the animal is given a ˜20 ms saline injection at approximately 2.4 atmospheres (350 mV on the oscilloscope) using the fluid percussion injury device (Custom Design & Fabrication, Richmond, Va.) (FIG. 29).
On occasion, the animal ceases spontaneous breathing following the injury and 1-2 chest compressions are required for resuscitation. The modified Leur-loc along with the dental acrylic is removed en bloc immediately following the injury. The animal is placed on 100% oxygen while its wound is cleaned and resealed with Vetbond tissue adhesive (3M Worldwide, Maplewood, Minn.). The rat's body temperature during the recovery time is maintained at 37° C. with a homeothermic warming blanket (Harvard Bioscience Inc, Holliston, Mass.). The amount of time necessary for the righting reflex to return is recorded and the animal is placed back into its cage. At 3 h post-injury, the animal is re-anesthetized and weighed again. The wound overlying the femoral cannula is opened and the cannula is cleaned out using heparinized saline. […] The cannula is sealed, tucked again into the animal, and the wound is re-sutured. At 24 h post-injury, the animal is re-anesthetized and weighed again. The rat is transcardially perfused using heparinized saline to clean out the cardiovascular system, followed by a 4% formalin fixative solution. The rat is decapitated and left in the fixative solution overnight. The brain is extracted the following day and processed. The volume of damaged brain (FIG. 26, right graph) is assessed according to the same methods as described in Aarts et al., 2002, for assessing stroke volumes. […]

reactive oxygen species = assay: ROS production (DHR fluorescence); type: cell-based, mouse
Description: The production of reactive oxygen species (ROS) was measured with DHR. In brief, DHR is oxidized to a fluorescent rhodamine-123 (Royall and Ischiropoulos, 1993), and the consequent rise in fluorescence may be used as an indicator of ROS production.
ROS were measured as previously described (Tymianski et al., 1998; Aarts et al., 2003). In brief, cultures were pre-loaded for 30 min with 5 μM DHR and subjected to the experimental insult. DHR fluorescence was measured in a multiwell plate fluorescence scanner (Cytofluor II, PerSeptive Biosytems, Framingham, Mass., USA; 485 nm excitation, 530 emission). DHR fluorescence was normalized to baseline using the formula at (Ft−Fo)/F0; Where Ft=DHR fluorescence at time t, Fo=DHR fluorescence at time zero. DHR fluorescence images were also acquired using a microscope (465-495 nm excitation and 515-555 nm emission) as described above for TMRM.

[2] = test system: cultured cortical neurons; assay: NMDA excitotoxicity in cultured cortical neurons (propidium iodide fluorescence); type: cell-based, mouse
nitrotyrosine = assay: Nitrotyrosine immunostaining (peroxynitrite formation); type: cell-based, mouse; details: pretreatment, 12 h post-NMDA challenge
Description: Cultures were fixed with warm 4% paraformaldehyde and 4% sucrose in PBS for 20 min, permeabilized with 0.1% Triton X-100 for 10 min at 4° C., and blocked with 10% goat serum in PBS for 1 h at RT. Immunofluorescence was visualized with an inverted Nikon microscope using a 40× oil immersion lens. FITC, rhodamine and Hoechst were visualized using 465-495 excitation and 515-555 nm emission, 510-560 nm excitation and 590 nm emission, and 340 nm excitation and 510 nm emission, respectively. Active caspase 3 was labelled by incubating the cultures with a purified rabbit monoclonal anti-active caspase 3 antibody (1:300; BD PharMingen) and a fluorescein-conjugated goat anti-mouse IgG secondary antibody (1:500; Transduction Labs). Nitrotyrosine was labelled by incubating the cultures with a rabbit polyclonal α-nitrotyrosine primary antibody (1:300; Upstate) and a rhodamine-conjugated goat anti-rabbit IgG secondary antibody (1:500; Transduction Labs). AIF was labelled by incubating the cultures with an AIF antibody (1:200; Santa Cruz, (Zhang et al., 2002)) and a rhodamine-conjugated goat anti-mouse IgG secondary antibody (1:500; Transduction Labs). In some experiments, nuclei were counter-stained with Hoechst 33258 (1:5,000, Transduction Labs).

Tat-KLSSIESDV [Tat-NR2B9c]
24 h neurological scores [1]: significant improvement | reduction in cortical infarction volume ([1]; 24 h): 86.97±4.38% | reduction of volume of total cerebral infarction ([1]; 24 h, vs controls): 67.0±3.75% | total volume of injured brain (traumatic brain injury; 3 hours after TBI): significantly reduced | fraction of dead cells in cerebral cortex and hippocampus ipsilateral to the injury (traumatic brain injury; via femoral cannula 3 hours after TBI): markedly reduced fraction of dead cells | ROS production by stretch alone (reactive oxygen species; 50 nM pretreatment): has no effect | NMDA-evoked ROS production (DHR oxidation) (reactive oxygen species; 50 nM pretreatment 30 min, stretched and unstretched cultures): reduced NMDA-evoked ROS production | vulnerability of neurons to NMDA toxicity, post-treatment ([2]; 50 nM applied after 1 h NMDA challenge (0-100 μM), cell death at 20 h): significantly reduced | NMDA-evoked cell death, pre-treatment ([2]; 50 nM for 1 h, then NMDA 0-100 μM 1 h, 20 h observation): significantly reduced | nitrotyrosine immunoreactivity (nitrotyrosine): reduced nitrotyrosine immunoreactivity
